A word on the IC50: it is the point on the concentration scale where inhibition reaches its midpoint. A lower IC50 goes with inhibition by little substance.

The target of this experiment is α-glucosidase. The experiment is described as follows: colorimetric α-glucosidase inhibition assay (p-nitrophenyl glucopyranoside substrate, […] nm). The experiment is classed as biochemical.

Structures are written as SMILES.

The compound `C[C@@H]1O[C@@H](Oc2ccc(Cc3cc(CC#N)ccc3O)cc2)[C@H](O)[C@H](O)[C@H]1O` [compound 4, 4-(α-L-rhamnopyranosyl) benzyl-1′-hydroxy-4′-phenylacetonitrile] registered a half-inhibitory concentration (IC50) of 382.8 ± 1.42 µM.

In turn, `C[C@@H]1O[C@@H](Oc2ccc(C/C(=N/OS(=O)(=O)O)S[C@@H]3O[C@H](CO)[C@@H](O)[C@H](O)[C@H]3O)cc2)[C@H](O)[C@H](O)[C@H]1O` [compound 16, glucomoringin] returned an IC50 of 301 ± 6.22 µM.

For the origin of these results see article PMC10489651, “Six New Phenolic Glycosides from the Seeds of Moringa oleifera Lam. and Their α-Glucosidase Inhibitory Activity” (Molecules, 2023).
